US20030100479A1, “Gene polymorphisms and response to treatment” (priority 2001, published 2003)
Entries after “also recorded” stand apart in the source; their conditions may differ.

Experiment: Clinical trial of GW320659: change in supine heart rate (time-adjusted AUC), by genotype
Assay type: in vivo, human
Set-up: Change in Heart Rate, Mean / Heart Rate (mean time adusted change): unit not given here
From the text: Using genotyping methods as are well known in the art, genetic data were obtained from approximately 200 of more than 500 human subjects enrolled in a dose-ranging efficacy and safety study of GW320659 for weight loss (main study group; a randomized, double-blind, placebo controlled, dose-ranging clinical trial); GW320659 was used in conjunction with a mildly hypocaloric diet and brief weight management guidance. Subjects were between the ages of 18-65 years, with a Body Mass Index (BMI) of 30-40, and were not on any psychotropic medications or other anti-obesity medications. Subjects were randomized into one of five treatment groups: placebo or GW320659 at 2.5 mg/day, 5 mg/day, 10 mg/day, or 15 mg/day (oral administration). In the main study group, for the GW320659 15 mg/day dosage, average weight loss was approximately 3.7 kg (108 subjects; data not shown).
Subjects were assessed for various parameters, including absolute change in body weight from week 0 to week 24 of the study; supine heart rate, diastolic blood pressure and systolic blood pressure at multiple predetermined time-points across the study; and change in Food Craving Inventory (Total) score from week 0 to week 24.
Analyses of changes in cardiovascular endpoints (HR, SBP, DBP, all measured in supine subjects) were conducted individually for each of the polymorphic sites, and analyzed as follows. Vital sign assessments at all post-baseline visits were analyzed utilizing a repeated measures (mixed) ANOVA model. Genotype by treatment interactions were assessed. The following model was used.
If the treatment by time interaction was non-significant, the corresponding term was planned to be removed from the model, prior to assessing treatment by genotype interaction. Subsequently, this term was removed for all vital signs analyses. In addition, vital signs data was analyzed utilizing a time-weighted area under the curve (adjusted for baseline) analysis. Model #2 (used for the efficacy analyses) was employed for these analyses.
The multilocus genotypes from each individual were used to enumerate all possible haplotypes. These haplotypes were assigned starting frequencies. The haplotype frequencies were updated with frequencies calculated from all the possible haplotypes from each individual in the sample. This continued until the frequencies were constant from iteration to iteration.
Regression-based models were used to relate inferred haplotype probabilities for each individual with the continuous response.
Supine heart rate (HR), supine systolic blood pressure (SBP) and supine diastolic blood pressure (DBP) were assessed at various fixed intervals across the duration of the study. Summaries and analyses were conducted on the “area under the curve” (AUC) values (adjusted for time on study and baseline). All reported p-values in this section refer to AUC analyses, using Model No.2 as described above.
As in Food Craving Inventory (Example 6, above), manual splits were created by treatment dose (placebo, 2.5+5 mg, and 10+15 mg). The p-value threshold was then set at 0.10 (the minimum level necessary to get further automatic splits). The software then determined the remaining splits for the 10+15 mg group. The splits found in the 10+15 mg group were then manually duplicated for the lower dose groups (for comparison purposes).

SMILES: C[C@@H]1CO[C@@](O)(c2cc(F)cc(F)c2)[C@H](C)N1.Cl [GW320659, (2S,3S,5R)-2-(3,5-difluorophenyl)-3,5-dimethyl-2-morpholinol]
- Increase in heart rate compared to subjects with alternate genotypes (DRD2 C12121T (2′,2) and MAOBG644A (1,1) genotypes, 10 mg/day or 15 mg/day): larger increase in heart rate
- Changes in heart rate compared to subjects with alternate genotypes (NET1 T342C (2,2) and without DRD2 C12121T (2,2), 10 mg/day or 15 mg/day): decreased changes in heart rate and blood pressure; also recorded: comparatively small changes in HR, SBP and DBP
- Change in Heart Rate, Mean (haplotype 1,1 5HTTC867T 5HTTT3287C, All Ethnicities, 10 and 15 mg combined (Table 6)): 3.5075
- Change in Heart Rate, Mean (haplotype 1,1 5HTTC867T 5HTTT3287C, Caucasians, 10 and 15 mg combined (Table 7)): 3.811
- Change in Heart Rate, Mean (haplotype 1,1 5HTTDel-Ins 5HTTC867T, All Ethnicities, 10 and 15 mg combined (Table 6)): 4.2
- Change in Heart Rate, Mean (haplotype 1,1 5HTTDel-Ins 5HTTC867T, Caucasians, 10 and 15 mg combined (Table 7)): 4.077
- Change in Heart Rate, Mean (haplotype 1,1,1 5HTTDel-Ins 5HTTC867T 5HTT3287C, All Ethnicities, 10 and 15 mg combined (Table 6)): 5.48
- Change in Heart Rate, Mean (haplotype 1,1,1 5HTTDel-Ins 5HTTC867T 5HTT3287C, Caucasians, 10 and 15 mg combined (Table 7)): 5.69
- Change in Heart Rate, Mean (haplotype 1,1,2 5HTTDel-Ins 5HTTC867T 5HTT3287C, All Ethnicities, 10 and 15 mg combined (Table 6)): −0.6849
- Change in Heart Rate, Mean (haplotype 1,1,2 5HTTDel-Ins 5HTTC867T 5HTT3287C, Caucasians, 10 and 15 mg combined (Table 7)): −0.8345
- Change in Heart Rate, Mean (haplotype 1,2 5HTTC867T 5HTTT3287C, All Ethnicities, 10 and 15 mg combined (Table 6)): −0.6851
- Change in Heart Rate, Mean (haplotype 1,2 5HTTC867T 5HTTT3287C, Caucasians, 10 and 15 mg combined (Table 7)): −0.8347
- Change in Heart Rate, Mean (haplotype 1,2 5HTTDel-Ins 5HTTC867T, All Ethnicities, 10 and 15 mg combined (Table 6)): 6.424
- Change in Heart Rate, Mean (haplotype 1,2 5HTTDel-Ins 5HTTC867T, Caucasians, 10 and 15 mg combined (Table 7)): 6.807
- Change in Heart Rate, Mean (haplotype 1,2,1 5HTTDel-Ins 5HTTC867T 5HTT3287C, All Ethnicities, 10 and 15 mg combined (Table 6)): 6.404
- Change in Heart Rate, Mean (haplotype 1,2,1 5HTTDel-Ins 5HTTC867T 5HTT3287C, Caucasians, 10 and 15 mg combined (Table 7)): 6.808
- Change in Heart Rate, Mean (haplotype 2,1 5HTTC867T 5HTTT3287C, All Ethnicities, 10 and 15 mg combined (Table 6)): 5.565
- Change in Heart Rate, Mean (haplotype 2,1 5HTTC867T 5HTTT3287C, Caucasians, 10 and 15 mg combined (Table 7)): 5.827
- Change in Heart Rate, Mean (haplotype 2,1 5HTTDel-Ins 5HTTC867T, All Ethnicities, 10 and 15 mg combined (Table 6)): 2.183
- Change in Heart Rate, Mean (haplotype 2,1 5HTTDel-Ins 5HTTC867T, Caucasians, 10 and 15 mg combined (Table 7)): 3.034
- Change in Heart Rate, Mean (haplotype 2,1,1 5HTTDel-Ins 5HTTC867T 5HTT3287C, All Ethnicities, 10 and 15 mg combined (Table 6)): 2.256
- Change in Heart Rate, Mean (haplotype 2,1,1 5HTTDel-Ins 5HTTC867T 5HTT3287C, Caucasians, 10 and 15 mg combined (Table 7)): 3.11
- Change in Heart Rate, Mean (haplotype 2,2 5HTTDel-Ins 5HTTC867T, All Ethnicities, 10 and 15 mg combined (Table 6)): 4.879
- Change in Heart Rate, Mean (haplotype 2,2 5HTTDel-Ins 5HTTC867T, Caucasians, 10 and 15 mg combined (Table 7)): 5.085
- Change in Heart Rate, Mean (haplotype 2,2,1 5HTTDel-Ins 5HTTC867T 5HTT3287C, All Ethnicities, 10 and 15 mg combined (Table 6)): 4.782
- Change in Heart Rate, Mean (haplotype 2,2,1 5HTTDel-Ins 5HTTC867T 5HTT3287C, Caucasians, 10 and 15 mg combined (Table 7)): 4.92
- Mean rise in HR (subgroup 2,2 for NET1T342C and/or NET1G155A and/or NR1G6435A, 10 mg and 15 mg combined): 4.7 bpm
- Overall mean time-adjusted change in Heart Rate, mean rise (subgroup 2,2 for NET1T342C and/or NET1G155A and/or NR1G6435A, 10 mg/day+15 mg/day, not significantly different from placebo): 4.7 beats per minute
- Heart Rate (mean time adusted change) (subgroup 2/2 NET1T342C and/or 2/2 NET1G155A and/or 2/2 NR1G6435A, 10 mg/day+15 mg/day, 26 subjects): 4.666
- Mean change in HR (subgroup DRD2 C12121T (1,1) and MAOB G644A (1,1), 10 mg and 15 mg dosing): 13 bpm
- Overall mean time-adjusted change in Heart Rate, mean increase (subgroup DRD2C12121T=2,2 and MAOBG644A=1,1, 10 mg/day+15 mg/day): 13 beats per minute
